Test results from US20260262643A1, “HERBICIDAL BENZOXAZINES” (FMC CORPORATION, priority 2022, published 2026).

Experiments:
pigweed, palmer [1] = assay: Test A preemergence; assay type: in vivo, Amaranthus palmeri
Summary of the method: (§1)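 Weeds and crops in loam–sand blend were sprayed preemergence onto soil or postemergence at 2–10 cm (one- to two-leaf stage). Test chemicals were in a non-phytotoxic solvent with surfactant. After 10 days in the greenhouse, injury was rated visually against untreated controls on a 0 (no effect) to 100 (complete control) scale.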

foxtail, giant [2] = assay: Test A postemergence; assay type: in vivo, Setaria faberi
Summary of the method: as §1

oat, wild [3] = assay: Test A postemergence; assay type: in vivo, Avena fatua
Summary of the method: as §1

horseweed = assay: Test A postemergence; assay type: in vivo, Erigeron canadensis
Summary of the method: as §1

ducksalad = assay: Test B flooded paddy test; assay type: in vivo, Heteranthera limosa; settings: 250 g ai/ha, Flood, 13 days, 0 to 100 scale (0 no effect, 100 complete control)
Summary of the method: (§2)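 Species grown to 2-leaf stage; pots flooded 3 cm above soil and compound applied directly to paddy water, depth maintained throughout. After 13 days in greenhouse, plants visually rated against controls on 0–100 scale (0 no effect, 100 complete control); dash means no result.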

corn [4] = assay: Test A postemergence; assay type: in vivo, Zea mays
Summary of the method: as §1

rice = assay: Test B flooded paddy test; assay type: in vivo, Oryza sativa; settings: 250 g ai/ha, Flood, 13 days, 0 to 100 scale (0 no effect, 100 complete control)
Summary of the method: as §2

corn [5] = assay: Test A preemergence; assay type: in vivo, Zea mays
Summary of the method: as §1

ryegrass, Italian [6] = assay: Test A preemergence; assay type: in vivo, Lolium multiflorum
Summary of the method: as §1

ragweed [7] = assay: Test A preemergence; assay type: in vivo, Ambrosia artemisiifolia
Summary of the method: as §1

sedge, umbrella = assay: Test B flooded paddy test; assay type: in vivo, Cyperus difformis; settings: 250 g ai/ha, Flood, 13 days, 0 to 100 scale (0 no effect, 100 complete control)
Summary of the method: as §2

ryegrass, Italian [8] = assay: Test A postemergence; assay type: in vivo, Lolium multiflorum
Summary of the method: as §1

goosegrass [9] = assay: Test A preemergence; assay type: in vivo, Eleusine indica
Summary of the method: as §1

soybean [10] = assay: Test A preemergence; assay type: in vivo, Glycine max
Summary of the method: as §1

soybean [11] = assay: Test A postemergence; assay type: in vivo, Glycine max
Summary of the method: as §1

wheat [12] = assay: Test A postemergence; assay type: in vivo, Triticum aestivum
Summary of the method: as §1

kochia [13] = assay: Test A postemergence; assay type: in vivo, Bassia scoparia
Summary of the method: as §1

blackgrass [14] = assay: Test A postemergence; assay type: in vivo, Alopecurus myosuroides
Summary of the method: as §1

foxtail, giant [15] = assay: Test A preemergence; assay type: in vivo, Setaria faberi
Summary of the method: as §1

kochia [16] = assay: Test A preemergence; assay type: in vivo, Bassia scoparia
Summary of the method: as §1

goosegrass [17] = assay: Test A postemergence; assay type: in vivo, Eleusine indica
Summary of the method: as §1

ragweed [18] = assay: Test A postemergence; assay type: in vivo, Ambrosia artemisiifolia
Summary of the method: as §1

barnyardgrass = assay: Test B flooded paddy test; assay type: in vivo, Echinochloa crus-galli; settings: 250 g ai/ha, Flood, 13 days, 0 to 100 scale (0 no effect, 100 complete control)
Summary of the method: as §2

blackgrass [19] = assay: Test A preemergence; assay type: in vivo, Alopecurus myosuroides
Summary of the method: as §1

pigweed, palmer [20] = assay: Test A postemergence; assay type: in vivo, Amaranthus palmeri
Summary of the method: as §1

galium = assay: Test A postemergence; assay type: in vivo, Galium aparine
Summary of the method: as §1

oat, wild [21] = assay: Test A preemergence; assay type: in vivo, Avena fatua
Summary of the method: as §1

wheat [22] = assay: Test A preemergence; assay type: in vivo, Triticum aestivum
Summary of the method: as §1

[23] = 125 g ai/ha, visual injury after 10 days, 0 to 100 scale, 0 is no effect, 100 is complete control
[24] = 500 g ai/ha, 0 to 100 scale (0 no effect, 100 complete control), 10 days
[25] = 125 g ai/ha, postemergence, 10 days, visual injury, 0 to 100 scale (0 no effect, 100 complete control)
[26] = 500 g ai/ha, Postemergence, 0 to 100 scale

SMILES: O=C(c1cccc(-n2cncn2)c1)N1CC(C(F)(F)F)Oc2c(Cl)cccc21 (centres unmarked) [Compound 59]
- Plant response rating, Pigweed, Palmer (pigweed, palmer [1]; [23]): 10
- Plant response rating, Pigweed, Palmer (pigweed, palmer [1]; [24]): 100
- Plant response rating, Foxtail, Giant (foxtail, giant [2]; [25]): 40
- Plant response rating, Foxtail, Giant (foxtail, giant [2]; [26]): 90
- Plant response rating, Oat, Wild (oat, wild [3]; [25]): 10
- Plant response rating, Oat, Wild (oat, wild [3]; [26]): 50
- Plant response rating, Horseweed (horseweed; [25]): 0
- Plant response rating, Horseweed (horseweed; [26]): 0
- Plant response rating, Ducksalad (ducksalad): 0
- Plant response rating, Corn (corn [4]; [26]): 20
- Plant response rating, Rice (rice): 0
- Plant response rating, Corn (corn [5]; [24]): 20
- Plant response rating, Ryegrass, Italian (ryegrass, Italian [6]; [23]): 90
- Plant response rating, Ryegrass, Italian (ryegrass, Italian [6]; [24]): 100
- Plant response rating, Ragweed (ragweed [7]; [23]): 0
- Plant response rating, Ragweed (ragweed [7]; [24]): 0
- Plant response rating, Sedge, Umbrella (sedge, umbrella): 0
- Plant response rating, Ryegrass, Italian (ryegrass, Italian [8]; [25]): 0
- Plant response rating, Ryegrass, Italian (ryegrass, Italian [8]; [26]): 60
- Plant response rating, Goosegrass (goosegrass [9]; [23]): 90
- Plant response rating, Goosegrass (goosegrass [9]; [24]): 100
- Plant response rating, Soybean (soybean [10]; [24]): 90
- Plant response rating, Soybean (soybean [11]; [26]): 100
- Plant response rating, Wheat (wheat [12]; [25]): 10
- Plant response rating, Wheat (wheat [12]; [26]): 40
- Plant response rating, Kochia (kochia [13]; [25]): 10
- Plant response rating, Kochia (kochia [13]; [26]): 70
- Plant response rating, Blackgrass (blackgrass [14]; [25]): 20
- Plant response rating, Blackgrass (blackgrass [14]; [26]): 80
- Plant response rating, Foxtail, Giant (foxtail, giant [15]; [23]): 90
- Plant response rating, Foxtail, Giant (foxtail, giant [15]; [24]): 100
- Plant response rating, Kochia (kochia [16]; [23]): 0
- Plant response rating, Kochia (kochia [16]; [24]): 90
- Plant response rating, Goosegrass (goosegrass [17]; [25]): 20
- Plant response rating, Goosegrass (goosegrass [17]; [26]): 50
- Plant response rating, Ragweed (ragweed [18]; [25]): 40
- Plant response rating, Ragweed (ragweed [18]; [26]): 40
- Plant response rating, Barnyardgrass (barnyardgrass): 0
- Plant response rating, Blackgrass (blackgrass [19]; [23]): 0
- Plant response rating, Blackgrass (blackgrass [19]; [24]): 60
- Plant response rating, Pigweed, Palmer (pigweed, palmer [20]; [25]): 20
- Plant response rating, Pigweed, Palmer (pigweed, palmer [20]; [26]): 50
- Plant response rating, Galium (galium; [25]): 90
- Plant response rating, Galium (galium; [26]): 100
- Plant response rating, Oat, Wild (oat, wild [21]; [23]): 20
- Plant response rating, Oat, Wild (oat, wild [21]; [24]): 90
- Plant response rating, Wheat (wheat [22]; [23]): 0
- Plant response rating, Wheat (wheat [22]; [24]): 50

SMILES: Cc1cccc2c1O[C@@H](C)CN2C(=O)c1cc(-n2cncn2)ccc1Cl [Compound 60]
- Plant response rating, Pigweed, Palmer (pigweed, palmer [1]; [23]): 30
- Plant response rating, Pigweed, Palmer (pigweed, palmer [1]; [24]): 90
- Plant response rating, Foxtail, Giant (foxtail, giant [2]; [25]): 90
- Plant response rating, Foxtail, Giant (foxtail, giant [2]; [26]): 90
- Plant response rating, Oat, Wild (oat, wild [3]; [25]): 50
- Plant response rating, Oat, Wild (oat, wild [3]; [26]): 90
- Plant response rating, Horseweed (horseweed; [25]): 0
- Plant response rating, Horseweed (horseweed; [26]): 0
- Plant response rating, Ducksalad (ducksalad): 45
- Plant response rating, Corn (corn [4]; [25]): 30
- Plant response rating, Corn (corn [4]; [26]): 80
- Plant response rating, Rice (rice): 0
- Plant response rating, Corn (corn [5]; [23]): 20
- Plant response rating, Corn (corn [5]; [24]): 30
- Plant response rating, Ryegrass, Italian (ryegrass, Italian [6]; [23]): 100
- Plant response rating, Ryegrass, Italian (ryegrass, Italian [6]; [24]): 100
- Plant response rating, Ragweed (ragweed [7]; [23]): 0
- Plant response rating, Ragweed (ragweed [7]; [24]): 20
- Plant response rating, Sedge, Umbrella (sedge, umbrella): 35
- Plant response rating, Ryegrass, Italian (ryegrass, Italian [8]; [25]): 0
- Plant response rating, Ryegrass, Italian (ryegrass, Italian [8]; [26]): 60
- Plant response rating, Goosegrass (goosegrass [9]; [23]): 100
- Plant response rating, Goosegrass (goosegrass [9]; [24]): 100
- Plant response rating, Soybean (soybean [10]; [23]): 40
- Plant response rating, Soybean (soybean [10]; [24]): 100
- Plant response rating, Soybean (soybean [11]; [25]): 100
- Plant response rating, Soybean (soybean [11]; [26]): 100
- Plant response rating, Wheat (wheat [12]; [25]): 30
- Plant response rating, Wheat (wheat [12]; [26]): 60
- Plant response rating, Kochia (kochia [13]; [25]): 20
- Plant response rating, Kochia (kochia [13]; [26]): 70
- Plant response rating, Blackgrass (blackgrass [14]; [25]): 10
- Plant response rating, Blackgrass (blackgrass [14]; [26]): 60
- Plant response rating, Foxtail, Giant (foxtail, giant [15]; [23]): 100
- Plant response rating, Foxtail, Giant (foxtail, giant [15]; [24]): 100
- Plant response rating, Kochia (kochia [16]; [23]): 0
- Plant response rating, Kochia (kochia [16]; [24]): 30
- Plant response rating, Goosegrass (goosegrass [17]; [25]): 10
- Plant response rating, Goosegrass (goosegrass [17]; [26]): 80
- Plant response rating, Ragweed (ragweed [18]; [25]): 20
- Plant response rating, Ragweed (ragweed [18]; [26]): 50
- Plant response rating, Barnyardgrass (barnyardgrass): 15
- Plant response rating, Blackgrass (blackgrass [19]; [23]): 20
- Plant response rating, Blackgrass (blackgrass [19]; [24]): 70
- Plant response rating, Pigweed, Palmer (pigweed, palmer [20]; [25]): 20
- Plant response rating, Pigweed, Palmer (pigweed, palmer [20]; [26]): 50
- Plant response rating, Galium (galium; [25]): 90
- Plant response rating, Galium (galium; [26]): 100
- Plant response rating, Oat, Wild (oat, wild [21]; [23]): 0
- Plant response rating, Oat, Wild (oat, wild [21]; [24]): 0
- Plant response rating, Wheat (wheat [22]; [23]): 0
- Plant response rating, Wheat (wheat [22]; [24]): 30

SMILES: Cc1cccc2c1O[C@@H](C)CN2C(=O)c1cccc(-n2cnc(C(C)(C)C)n2)c1 [Compound 65]
- Plant response rating, Pigweed, Palmer (pigweed, palmer [1]; [23]): 90
- Plant response rating, Pigweed, Palmer (pigweed, palmer [1]; [24]): 100
- Plant response rating, Foxtail, Giant (foxtail, giant [2]; [25]): 10
- Plant response rating, Foxtail, Giant (foxtail, giant [2]; [26]): 50
- Plant response rating, Oat, Wild (oat, wild [3]; [26]): 20
- Plant response rating, Horseweed (horseweed; [25]): 0
- Plant response rating, Horseweed (horseweed; [26]): 20
- Plant response rating, Ducksalad (ducksalad): 45
- Plant response rating, Corn (corn [4]; [25]): 10
- Plant response rating, Corn (corn [4]; [26]): 70
- Plant response rating, Rice (rice): 0
- Plant response rating, Corn (corn [5]; [23]): 40
- Plant response rating, Corn (corn [5]; [24]): 50
- Plant response rating, Ryegrass, Italian (ryegrass, Italian [6]; [23]): 100
- Plant response rating, Ryegrass, Italian (ryegrass, Italian [6]; [24]): 100
- Plant response rating, Ragweed (ragweed [7]; [23]): 0
- Plant response rating, Ragweed (ragweed [7]; [24]): 40
- Plant response rating, Sedge, Umbrella (sedge, umbrella): 95
- Plant response rating, Ryegrass, Italian (ryegrass, Italian [8]; [26]): 100
- Plant response rating, Goosegrass (goosegrass [9]; [23]): 100
- Plant response rating, Goosegrass (goosegrass [9]; [24]): 100
- Plant response rating, Soybean (soybean [10]; [23]): 30
- Plant response rating, Soybean (soybean [10]; [24]): 90
- Plant response rating, Soybean (soybean [11]; [26]): 100
- Plant response rating, Wheat (wheat [12]; [26]): 20
- Plant response rating, Kochia (kochia [13]; [25]): 60
- Plant response rating, Kochia (kochia [13]; [26]): 90
- Plant response rating, Blackgrass (blackgrass [14]; [25]): 30
- Plant response rating, Blackgrass (blackgrass [14]; [26]): 80
- Plant response rating, Foxtail, Giant (foxtail, giant [15]; [23]): 100
- Plant response rating, Foxtail, Giant (foxtail, giant [15]; [24]): 100
- Plant response rating, Kochia (kochia [16]; [23]): 80
- Plant response rating, Kochia (kochia [16]; [24]): 100
- Plant response rating, Goosegrass (goosegrass [17]; [25]): 10
- Plant response rating, Goosegrass (goosegrass [17]; [26]): 40
- Plant response rating, Ragweed (ragweed [18]; [26]): 80
- Plant response rating, Barnyardgrass (barnyardgrass): 0
- Plant response rating, Blackgrass (blackgrass [19]; [23]): 80
- Plant response rating, Blackgrass (blackgrass [19]; [24]): 90
- Plant response rating, Pigweed, Palmer (pigweed, palmer [20]; [26]): 70
- Plant response rating, Galium (galium; [25]): 100
- Plant response rating, Galium (galium; [26]): 100
- Plant response rating, Oat, Wild (oat, wild [21]; [23]): 70
- Plant response rating, Oat, Wild (oat, wild [21]; [24]): 80
- Plant response rating, Wheat (wheat [22]; [23]): 40
- Plant response rating, Wheat (wheat [22]; [24]): 70
